Measured values taken from patent US9963434B2, “N-arylmethyl sulfonamide negative modulators of NR2A” (LUC THERAPEUTICS, priority 2013, dated 2018).
pIC50: −log10 of the molar value. Read-outs that look alike come from different tables or passages of the source.

Biological target: NR1/NR2A (Homo sapiens (Human), UniProt Q05586+Q12879)
Assay: FDSS Ca2+ influx inhibition assay in HEK293 cells expressing NR1/NR2A
Type: cell-based
Details: 3 μM glutamate, 3 μM glycine, 1 mM Ca2+
Experimental: Cell Culture and plating: HEK293 cells expressing NR1/NR2A (Chantest, Cleveland, Ohio) were grown to 70-80% confluency as an adherent monolayer in standard tissue culture flasks at 37° C., 5% CO2 per supplier's instructions.
After induction, cell culture medium was removed and cells were rinsed once with Ca^2+ and Mg^2+-free Dulbecco's phosphate buffered saline. Cells were then removed from the flask using TrypLE™ Express (Life Technologies) according to the manufacturer's instructions and collected to 50 ml centrifuge tubes. Following two washes in Ca^2+/Mg^2+-free HBSS with 20 mM HEPES (HHnoCa), cells were counted and viability assessed using trypan blue. To load cells with Ca^2+-sensitive dye, they were resuspended in fluo-8 plus Component B (AAT Bioquest Products) diluted in HHnoCa and incubated 15 minutes at 37° C., followed by 30 minutes at room temp (in dark). Cells were then washed and resuspended in HHnoCa to remove extracellular dye and plated in 384-well plates (Falcon, uncoated) at 20,000-30,000 cells/well in a final volume of 25 μL/well.
FDSS Assay: To each well of the plate, 10 μL test compound, control (MK801) or HHnoCa buffer was added to a final concentration of 10 μM with a final concentration of DMSO of 0.1%. Following 10 minutes pre-incubation in the dark, plates are loaded onto the Hamamatsu FDSS 6000. After collecting baseline fluorescence images, 3 μM glutamate, 3 μM glycine, and 1 mM Ca^2+ in HHnoCa buffer is added to each well, and Ca^2+ is recorded for 3 minutes. Data were processed by computing ratio of fluorescence at the end of data collection to baseline fluorescence to assess degree of Ca^2+ influx inhibition relative to that observed in MK801.

[1] = inhibition relative to MK801, read-out: NR2A IC50

Chain of NR1/NR2A (Q12879 23-1464, other chains not shown): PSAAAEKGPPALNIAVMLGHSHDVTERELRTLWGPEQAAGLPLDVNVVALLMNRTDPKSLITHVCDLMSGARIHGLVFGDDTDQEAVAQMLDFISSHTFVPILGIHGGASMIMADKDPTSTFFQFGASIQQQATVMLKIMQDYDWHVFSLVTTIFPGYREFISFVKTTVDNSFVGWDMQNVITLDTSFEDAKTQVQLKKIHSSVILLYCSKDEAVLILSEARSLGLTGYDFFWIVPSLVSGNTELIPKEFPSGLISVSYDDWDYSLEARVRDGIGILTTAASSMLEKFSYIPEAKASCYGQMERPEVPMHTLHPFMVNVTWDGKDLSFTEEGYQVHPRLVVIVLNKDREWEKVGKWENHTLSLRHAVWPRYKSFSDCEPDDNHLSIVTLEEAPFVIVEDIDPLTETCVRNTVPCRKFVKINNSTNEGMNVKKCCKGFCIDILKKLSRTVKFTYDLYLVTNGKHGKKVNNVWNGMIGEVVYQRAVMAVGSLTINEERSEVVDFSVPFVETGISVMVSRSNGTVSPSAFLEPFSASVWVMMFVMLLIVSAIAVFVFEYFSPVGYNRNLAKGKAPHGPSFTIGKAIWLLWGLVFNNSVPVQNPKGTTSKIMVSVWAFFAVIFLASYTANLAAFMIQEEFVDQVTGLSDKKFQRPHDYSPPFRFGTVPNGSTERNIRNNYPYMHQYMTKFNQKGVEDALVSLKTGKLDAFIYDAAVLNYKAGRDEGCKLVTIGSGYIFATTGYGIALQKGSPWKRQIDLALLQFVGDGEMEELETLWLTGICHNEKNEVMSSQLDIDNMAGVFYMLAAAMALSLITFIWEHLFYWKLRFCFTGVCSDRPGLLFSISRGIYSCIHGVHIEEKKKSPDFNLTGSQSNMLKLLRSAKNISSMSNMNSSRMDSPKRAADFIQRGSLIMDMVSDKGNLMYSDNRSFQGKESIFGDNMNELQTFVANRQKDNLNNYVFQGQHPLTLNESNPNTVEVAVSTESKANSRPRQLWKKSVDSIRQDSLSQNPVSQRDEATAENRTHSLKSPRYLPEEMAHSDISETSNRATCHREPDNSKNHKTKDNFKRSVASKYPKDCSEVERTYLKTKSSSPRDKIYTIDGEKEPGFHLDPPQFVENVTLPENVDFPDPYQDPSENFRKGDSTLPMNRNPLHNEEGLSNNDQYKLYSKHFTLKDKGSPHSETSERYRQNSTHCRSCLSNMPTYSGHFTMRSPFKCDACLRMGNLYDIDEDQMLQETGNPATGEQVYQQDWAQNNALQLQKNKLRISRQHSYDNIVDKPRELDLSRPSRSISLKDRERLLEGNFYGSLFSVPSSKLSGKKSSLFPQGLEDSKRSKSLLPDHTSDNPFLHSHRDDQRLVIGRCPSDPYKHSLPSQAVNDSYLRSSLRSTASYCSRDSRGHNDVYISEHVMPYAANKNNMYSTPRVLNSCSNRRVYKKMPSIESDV

For O=C(NCc1cncs1)c1cnc(CNS(=O)(=O)c2ccc(F)c(Cl)c2)cn1 [5-(3-chloro-4-fluorobenzenesulfon-amidomethyl)-N-(1,3-thiazol-5-ylmethyl)pyrazine-2-carboxamide], the pIC50 (read-out: Binned Activity) was 6.00 to 7.00.
Work on O=C(NCc1cncs1)c1ccc(CNS(=O)(=O)c2ccc(F)c(Cl)c2)cn1 [5-(3-chloro-4-fluorobenzenesulfon-amidomethyl)-N-(1,3-thiazol-5-ylmethyl)pyridine-2-carboxamide] yielded a pIC50 (read-out: Binned Activity) of 6.00 to 7.00.
For O=C(NCc1ccco1)c1ccc(CNS(=O)(=O)c2ccc(F)c(Cl)c2)cn1 [5-(3-chloro-4-fluorobenzenesulfon-amidomethyl)-N-(furan-2-ylmethyl)pyridine-2-carboxamide], the pIC50 [1] was 5.00 and the pIC50 (read-out: Binned Activity) was < 5.00.
O=C(NCc1ccoc1)c1ccc(CNS(=O)(=O)c2ccc(F)c(Cl)c2)cn1 [5-(3-chloro-4-fluorobenzenesulfon-amidomethyl)-N-(furan-3-ylmethyl)pyridine-2-carboxamide] was tested, and the pIC50 [1] was 5.00 and the pIC50 (read-out: Binned Activity) was < 5.00.
Molecule O=C(NCc1cnccn1)c1cnc(CNS(=O)(=O)c2ccc(F)c(Cl)c2)cn1 [5-(3-chloro-4-fluorobenzenesulfon-amidomethyl)-N-(pyrazin-2-ylmethyl)pyrazine-2-carboxamide] has a pIC50 (read-out: Binned Activity) of 5.00 to 6.00.
O=C(NCc1cnccn1)c1ccc(CNS(=O)(=O)c2ccc(F)c(Cl)c2)cn1 [5-(3-chloro-4-fluorobenzenesulfon-amidomethyl)-N-(pyrazin-2-ylmethyl)pyridine-2-carboxamide] showed a pIC50 (read-out: Binned Activity) of 5.00 to 6.00.
O=C(NCc1ccccn1)c1cnc(CNS(=O)(=O)c2ccc(F)c(Cl)c2)cn1 [5-(3-chloro-4-fluorobenzenesulfon-amidomethyl)-N-(pyridin-2-ylmethyl)pyrazine-2-carboxamide] was tested, and the pIC50 [1] was 5.00 and the pIC50 (read-out: Binned Activity) was < 5.00.
For O=C(NCc1ccccn1)c1ccc(CNS(=O)(=O)c2ccc(F)c(Cl)c2)cn1 [5-(3-chloro-4-fluorobenzenesulfon-amidomethyl)-N-(pyridin-2-ylmethyl)pyridine-2-carboxamide], the pIC50 [1] was 5.00 and the pIC50 (read-out: Binned Activity) was < 5.00.
Molecule O=C(NCc1cccnc1)c1cnc(CNS(=O)(=O)c2ccc(F)c(Cl)c2)cn1 [5-(3-chloro-4-fluorobenzenesulfon-amidomethyl)-N-(pyridin-3-ylmethyl)pyrazine-2-carboxamide] has a pIC50 (read-out: Binned Activity) of 6.00 to 7.00.
O=C(NCc1cccnc1)c1ccc(CNS(=O)(=O)c2ccc(F)c(Cl)c2)cn1 [5-(3-chloro-4-fluorobenzenesulfon-amidomethyl)-N-(pyridin-3-ylmethyl)pyridine-2-carboxamide] showed a pIC50 (read-out: Binned Activity) of 6.00 to 7.00.
O=C(NCc1cccnc1)c1ncc(CNS(=O)(=O)c2ccc(F)c(Cl)c2)cn1 [5-(3-chloro-4-fluorobenzenesulfon-amidomethyl)-N-(pyridin-3-ylmethyl)pyrimidine-2-carboxamide] was tested, and the pIC50 [1] was 5.00 and the pIC50 (read-out: Binned Activity) was < 5.00.
In the case of O=C(NCc1ccncc1)c1cnc(CNS(=O)(=O)c2ccc(F)c(Cl)c2)cn1 [5-(3-chloro-4-fluorobenzenesulfon-amidomethyl)-N-(pyridin-4-ylmethyl)pyrazine-2-carboxamide], the pIC50 (read-out: Binned Activity) was 5.00 to 6.00.
For O=C(NCc1ccncc1)c1ccc(CNS(=O)(=O)c2ccc(F)c(Cl)c2)cn1 [5-(3-chloro-4-fluorobenzenesulfon-amidomethyl)-N-(pyridin-4-ylmethyl)pyridine-2-carboxamide], the pIC50 [1] was 5.00 and the pIC50 (read-out: Binned Activity) was < 5.00.
O=C(NCc1ncccn1)c1ccc(CNS(=O)(=O)c2ccc(F)c(Cl)c2)cn1 [5-(3-chloro-4-fluorobenzenesulfon-amidomethyl)-N-(pyrimidin-2-ylmethyl)pyridine-2-carboxamide] was tested, and the pIC50 [1] was 5.00 and the pIC50 (read-out: Binned Activity) was < 5.00.
O=C(NCc1ccncn1)c1cnc(CNS(=O)(=O)c2ccc(F)c(Cl)c2)cn1 [5-(3-chloro-4-fluorobenzenesulfon-amidomethyl)-N-(pyrimidin-4-ylmethyl)pyrazine-2-carboxamide] was tested, and the pIC50 [1] was 5.00 and the pIC50 (read-out: Binned Activity) was < 5.00.
For O=C(NCc1ccncn1)c1ccc(CNS(=O)(=O)c2ccc(F)c(Cl)c2)cn1 [5-(3-chloro-4-fluorobenzenesulfon-amidomethyl)-N-(pyrimidin-4-ylmethyl)pyridine-2-carboxamide], the pIC50 [1] was 5.00 and the pIC50 (read-out: Binned Activity) was < 5.00.
With O=C(NCc1cncnc1)c1cnc(CNS(=O)(=O)c2ccc(F)c(Cl)c2)cn1 [5-(3-chloro-4-fluorobenzenesulfon-amidomethyl)-N-(pyrimidin-5-ylmethyl)pyrazine-2-carboxamide] the pIC50 (read-out: Binned Activity) was 5.00 to 6.00.
O=C(NCc1cncnc1)c1ccc(CNS(=O)(=O)c2ccc(F)c(Cl)c2)cn1 [5-(3-chloro-4-fluorobenzenesulfon-amidomethyl)-N-(pyrimidin-5-ylmethyl)pyridine-2-carboxamide] was tested, and the pIC50 (read-out: Binned Activity) was 5.00 to 6.00.
O=C(NCc1cccs1)c1ccc(CNS(=O)(=O)c2ccc(F)c(Cl)c2)cn1 [5-(3-chloro-4-fluorobenzenesulfon-amidomethyl)-N-(thiophen-2-ylmethyl)pyridine-2-carboxamide] was tested, and the pIC50 [1] was 5.00 and the pIC50 (read-out: Binned Activity) was < 5.00.
O=C(NCc1ccsc1)c1ccc(CNS(=O)(=O)c2ccc(F)c(Cl)c2)cn1 [5-(3-chloro-4-fluorobenzenesulfon-amidomethyl)-N-(thiophen-3-ylmethyl)pyridine-2-carboxamide] was tested, and the pIC50 [1] was 5.00 and the pIC50 (read-out: Binned Activity) was < 5.00.
With Cc1ncc(C(C)NC(=O)c2cnc(CNS(=O)(=O)c3ccc(F)c(Cl)c3)cn2)s1 (stereo not shown) [5-(3-chloro-4-fluorobenzenesulfon-amidomethyl)-N-[1-(2-methyl-1,3-thiazol-5-yl)ethyl]pyrazine-2-carboxamide] the pIC50 (read-out: Binned Activity) was 6.00 to 7.00.
CC(NC(=O)c1ccc(CNS(=O)(=O)c2ccc(F)c(Cl)c2)cn1)c1ccco1 (stereo not shown) [5-(3-chloro-4-fluorobenzenesulfon-amidomethyl)-N-[1-(furan-2-yl)ethyl]pyridine-2-carboxamide] was tested, and the pIC50 (read-out: Binned Activity) was 5.00 to 6.00.
CC(NC(=O)c1ccc(CNS(=O)(=O)c2ccc(F)c(Cl)c2)cn1)c1cccs1 (stereo not shown) [5-(3-chloro-4-fluorobenzenesulfon-amidomethyl)-N-[1-(thiophen-2-yl)ethyl]pyridine-2-carboxamide] was tested, and the pIC50 (read-out: Binned Activity) was 5.00 to 6.00.
With COc1ccc(CCNC(=O)c2ccc(CNS(=O)(=O)c3ccc(F)c(Cl)c3)cn2)cc1 [5-(3-chloro-4-fluorobenzenesulfon-amidomethyl)-N-[2-(4-methoxyphenyl)ethyl] pyridine-2-carboxamide] the pIC50 [1] was 5.00 and the pIC50 (read-out: Binned Activity) was < 5.00.
For CN(C)CCNC(=O)c1ccc(CNS(=O)(=O)c2ccc(F)c(Cl)c2)cn1 [5-(3-chloro-4-fluorobenzenesulfon-amidomethyl)-N-[2-(dimethylamino)ethyl] pyridine-2-carboxamide], the pIC50 [1] was 5.00 and the pIC50 (read-out: Binned Activity) was < 5.00.
In the case of CN(C)CCCNC(=O)c1ccc(CNS(=O)(=O)c2ccc(F)c(Cl)c2)cn1 [5-(3-chloro-4-fluorobenzenesulfon-amidomethyl)-N-[3-(dimethylamino)propyl] pyridine-2-carboxamide], the pIC50 [1] was 5.00 and the pIC50 (read-out: Binned Activity) was < 5.00.
For Cc1cc(CNC(=O)c2cnc(CNS(=O)(=O)c3ccc(F)c(Cl)c3)cn2)n(C)n1 [5-(3-chloro-4-fluorobenzenesulfon-amidomethyl)-N-[(1,3-dimethyl-1H-pyrazol-5-yl)methyl]pyrazine-2-carboxamide], the pIC50 [1] was 5.00 and the pIC50 (read-out: Binned Activity) was < 5.00.
For Cc1cc(CNC(=O)c2ccc(CNS(=O)(=O)c3ccc(F)c(Cl)c3)cn2)n(C)n1 [5-(3-chloro-4-fluorobenzenesulfon-amidomethyl)-N-[(1,3-dimethyl-1H-pyrazol-5-yl)methyl]pyridine-2-carboxamide], the pIC50 [1] was 5.00 and the pIC50 (read-out: Binned Activity) was < 5.00.
In the case of Cc1ccc(CNC(=O)c2cnc(CNS(=O)(=O)c3ccc(F)c(Cl)c3)cn2)n1C [5-(3-chloro-4-fluorobenzenesulfon-amidomethyl)-N-[(1,5-dimethyl-1H-pyrrol-2-yl)methyl]pyrazine-2-carboxamide], the pIC50 (read-out: Binned Activity) was 6.00 to 7.00.
In the case of Cn1ccnc1CNC(=O)c1cnc(CNS(=O)(=O)c2ccc(F)c(Cl)c2)cn1 [5-(3-chloro-4-fluorobenzenesulfon-amidomethyl)-N-[(1-methyl-1H-imidazol-2-yl)methyl]pyrazine-2-carboxamide], the pIC50 [1] was 5.00 and the pIC50 (read-out: Binned Activity) was < 5.00.
With Cn1cnc(CNC(=O)c2cnc(CNS(=O)(=O)c3ccc(F)c(Cl)c3)cn2)c1 [5-(3-chloro-4-fluorobenzenesulfon-amidomethyl)-N-[(1-methyl-1H-imidazol-4-yl)methyl]pyrazine-2-carboxamide] the pIC50 [1] was 5.00 and the pIC50 (read-out: Binned Activity) was < 5.00.
Cn1cnc(CNC(=O)c2ccc(CNS(=O)(=O)c3ccc(F)c(Cl)c3)cn2)c1 [5-(3-chloro-4-fluorobenzenesulfon-amidomethyl)-N-[(1-methyl-1H-imidazol-4-yl)methyl]pyridine-2-carboxamide] was tested, and the pIC50 [1] was 5.00 and the pIC50 (read-out: Binned Activity) was < 5.00.
Cn1cncc1CNC(=O)c1cnc(CNS(=O)(=O)c2ccc(F)c(Cl)c2)cn1 [5-(3-chloro-4-fluorobenzenesulfon-amidomethyl)-N-[(1-methyl-1H-imidazol-5-yl)methyl]pyrazine-2-carboxamide] showed a pIC50 (read-out: Binned Activity) of 5.00 to 6.00.
